Several values for one entry are separate records, joined by “and”; a condition that tells them apart may be missing. Equal entries are not always repeated. Where two headings read alike, the source gives them in different places.
Test system: human conjunctival tissue mast cells
Assay: Inhibition of anti-IgE induced histamine release from human conjunctival tissue mast cells (HCTMC)
Assay type: cell-based
Method: Methods detailing preparation of mono-dispersed HCTMC and mediator release studies with these cells have been described (U.S. Pat. No. 5,360,720 and Miller et al, Ocular Immunology and Inflammation, 4(1):39-49 (1996)). Briefly, human conjunctival tissue mast cells were isolated from post-mortem tissue donors obtained within 8 hours of death by various eye banks and transported in Dexsol® corneal preservation medium, or equivalent. Tissues were enzymatically digested by repeated exposure (30 min. at 37° C.) to collagenase and hyaluronidase (2× with 200 U each/gram tissue, then 2-4 × with 2000 U each/gram tissue) in Tyrode's buffer containing 0.1% gelatin. (Tyrode's buffer (in mM): 137 NaCl, 2.7 KCl, 0.35 NaH2PO4, 1.8 CaCl2, 0.98 MgCl2, 11.9 NaHCO3, and 5.5 glucose). Each digestion mixture was filtered over Nitex® cloth (100 μm mesh, Tetko, Briarcliff Manor, N.Y.) and washed with an equal volume of buffer. Filtrates were centrifuged at 825×g (7 min). Pellets were resuspended in buffer then combined for enrichment over a […] Percoll® cushion. The enriched pellet was washed, resuspended in supplemented RPMI 1640 medium and incubated at 37° C. to equilibrate.
Cells were harvested from the culture plate and counted for viability (trypan blue exclusion) and mast cell number (toluidine blue O). Mast cells (5000/tube; 1 mL final volume) were challenged (37° C.) for 15 min with goat-anti-human IgE (10 μg/mL) following treatment (15 minutes; 37° C.) with test drug or Tyrode's buffer. Total and non-specific release controls were exposed to 0.1% Triton X-100 and goat IgG (10 μg/mL), respectively. The reaction was terminated by centrifugation (500×g, 4° C., 10 min). Supernatants were stored at −20° C. until analyzed for histamine content by RIA (Beckman Coulter, Chicago, Ill.).
All test drugs were made to solution immediately prior to use. Each was dissolved in DMSO at 10 mM or greater concentration and then diluted in Tyrode's buffer containing 0.1% gelatin over the concentration for evaluation.
Inhibition of histamine release was determined by direct comparison of with anti-IgE challenged mast cells using Dunnett's t-test (Dunnett, “A multiple comparison procedure for comparing treatments with a control”, J. Amer. Stat. Assoc. (1955), 50:1096-1121).

[1] = Homo sapiens, Mast cell, bracketed value, apparently the mean of the individual determinations in the same cell, read-out: IC50(nM), value in square brackets
[2] = goat-anti-human IgE 10 μg/mL challenge 15 min after 15 min drug treatment, individual determinations (values outside brackets), read-out: IC50

IC50 [1] [nM] | IC50 [2] | IC50 (Homo sapiens, Mast cell, 0.25 h, goat-anti-human IgE 10 μg/mL challenge 15 min after 15 min drug treatment, individual determinations (values outside brackets), read-out: IC50) [nM] | Structure (SMILES)
105 | 78 nM and 199 nM and 39 nM | – | O=C(NCCCN1CCOCC1)c1ccccc1SSc1ccccc1C(=O)NCCCN1CCOCC1 [Compound 2]
148 | – | – | C=CCNC(=O)c1ccccc1SSc1ccccc1C(=O)NCC=C [Compound 3]
282 | – | – | CNC(=O)c1ccccc1SSc1ccccc1C(=O)NC [Compound 4]
122 | 107 nM and 219 nM and 229 nM and 84 nM and 71 nM | – | CC(O)CNC(=O)c1ccccc1SSc1ccccc1C(=O)NCC(C)O (stereo not drawn) [Compound 5]
312 | 222 nM | 402 | CNC(=O)c1cccc(SSc2cccc(C(=O)NC)c2)c1 [Compound 6]
